Experimental data reported in ChEMBL document CHEMBL1201862, “PubChem BioAssay data set” (2004).
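Protocol summary: plate cells (96-well), add compound at 5 concentrations, incubate 48 h, interpolate endpoints linearly. Abbreviation: GI50, concentration required for 50% inhibition of growth.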 Activity calls are given as the source filed them. Cut-off read from the data, not from the text of the source: active = GI50 up to about 1.1 µM and inactive = higher.

Key:
Assay in all cases: DTP human tumour cell line panel, 48 h
[1] = test system: DLD-1
[2] = test system: XF498
[3] = test system: DMS-273
[4] = test system: M19-MEL
[5] = test system: KM-20L2
[6] = test system: LXFL 529
[7] = test system: SNB-78
[8] = test system: HOP-18
[9] = test system: RXF 631

Cc1ccc([N+](=O)[O-])cc1NC(=O)c1cccc([N+](=O)[O-])c1O
GI50 [1]: 20.7 µM (inactive)
GI50 [2]: 18.2 µM (inactive)
GI50 [3]: 11.9 µM (inactive)
GI50 [4]: 15.5 µM (inactive)
GI50 [5]: 25.5 µM (inactive)
GI50 [6]: 19.1 µM (inactive)
GI50 [7]: 20.8 µM (inactive)

CC1CCc2c(sc3ncnc(N/N=C/c4ccc(Cl)cc4)c23)C1 (configuration not stated)
GI50 [1]: 33.6 µM (inactive)
GI50 [3]: 37.4 µM (inactive)
GI50 [5]: 22.8 µM (inactive)

COc1cc2cc[n+](C)c(Cc3ccccc3)c2cc1OC
GI50 [8]: > 100 µM (inactive)
GI50 [3]: > 100 µM (inactive)
GI50 [4]: > 100 µM (inactive)
GI50 [5]: > 100 µM (inactive)
GI50 [6]: > 100 µM (inactive)
GI50 [7]: > 100 µM (inactive)

CC(C)C1COC(C(C)(C)C2=N[C@@H](C(C)C)CO2)=N1 (some centres not stated)
GI50 [1]: > 100 µM (inactive)
GI50 [2]: > 100 µM (inactive)
GI50 [8]: > 100 µM (inactive)
GI50 [3]: > 100 µM (inactive)
GI50 [4]: > 100 µM (inactive)
GI50 [5]: > 100 µM (inactive)
GI50 [9]: > 100 µM (inactive)
GI50 [6]: > 100 µM (inactive)

CN(C)CCNC(=O)c1cccc2ccc(-c3cccnc3)nc12
GI50 [1]: 4.41 µM (inactive)
GI50 [8]: 13.7 µM (inactive)
GI50 [3]: 3.35 µM (inactive)
GI50 [4]: 5.71 µM (inactive)
GI50 [9]: 3.48 µM (inactive)
GI50 [7]: 7.11 µM (inactive)

COc1ccc(C(=O)Nc2ccn(CCOC(=O)c3ccc(OC)cc3)c(=O)n2)cc1
GI50 [1]: > 100 µM (inactive)
GI50 [2]: > 100 µM (inactive)
GI50 [8]: > 100 µM (inactive)
GI50 [3]: > 100 µM (inactive)
GI50 [4]: > 100 µM (inactive)
GI50 [5]: > 100 µM (inactive)
GI50 [9]: > 100 µM (inactive)
GI50 [6]: > 100 µM (inactive)
GI50 [7]: 76.2 µM (inactive)

CC(=O)NC(CCCN)C(=O)NCc1ccccc1 (configuration not stated)
GI50 [1]: > 100 µM (inactive)
GI50 [2]: > 100 µM (inactive)
GI50 [3]: > 100 µM (inactive)
GI50 [4]: > 100 µM (inactive)
GI50 [5]: > 100 µM (inactive)
GI50 [6]: > 100 µM (inactive)
GI50 [7]: > 100 µM (inactive)

Cn1c(=O)c(NC(=O)C(Cl)(Cl)Cl)nc2ccccc21
GI50 [1]: > 100 µM (inactive)
GI50 [2]: > 100 µM (inactive)
GI50 [3]: > 100 µM (inactive)
GI50 [4]: > 100 µM (inactive)
GI50 [5]: > 100 µM (inactive)
GI50 [9]: > 100 µM (inactive)
GI50 [6]: > 100 µM (inactive)
GI50 [7]: > 100 µM (inactive)

CCOC(=O)CCc1c(C)c2c(OC(C)=O)cc(OC(C)=O)cc2oc1=O
GI50 [1]: 46 µM (inactive)
GI50 [8]: > 100 µM (inactive)
GI50 [3]: 35 µM (inactive)
GI50 [4]: 61.9 µM (inactive)
GI50 [5]: > 100 µM (inactive)
GI50 [6]: 37.4 µM (inactive)
GI50 [7]: 47.6 µM (inactive)

O=C(O)C1CCCCN1C(=O)c1ccccc1 (configuration not stated)
GI50 [1]: > 100 µM (inactive)
GI50 [2]: > 100 µM (inactive)
GI50 [8]: > 100 µM (inactive)
GI50 [3]: > 100 µM (inactive)
GI50 [4]: > 100 µM (inactive)
GI50 [5]: > 100 µM (inactive)
GI50 [9]: > 100 µM (inactive)
GI50 [6]: > 100 µM (inactive)
GI50 [7]: > 100 µM (inactive)

Nc1nnc2nc(CC(=O)/C=C/c3ccccc3)c(=O)[nH]n12
GI50 [1]: > 100 µM (inactive)
GI50 [2]: > 100 µM (inactive)
GI50 [3]: > 100 µM (inactive)
GI50 [4]: > 100 µM (inactive)
GI50 [5]: > 100 µM (inactive)
GI50 [9]: > 100 µM (inactive)
GI50 [6]: > 100 µM (inactive)
GI50 [7]: > 100 µM (inactive)

CCC(C)COC(=O)c1ccc(/N=C\c2ccc(/C=N/c3ccc(C(=O)OCC(C)CC)cc3)cc2)cc1 (configuration not stated)
GI50 [1]: > 100 µM (inactive)
GI50 [8]: > 100 µM (inactive)
GI50 [3]: > 100 µM (inactive)
GI50 [5]: > 100 µM (inactive)
GI50 [9]: > 100 µM (inactive)
GI50 [6]: > 100 µM (inactive)
GI50 [7]: > 100 µM (inactive)

COC(=O)c1ccccc1NC(=O)C(=O)CC(=O)c1ccccc1NC1=CC(=O)C(=O)c2ccccc21
GI50 [1]: 4.57 µM (inactive)
GI50 [2]: 15.6 µM (inactive)
GI50 [8]: 7.59 µM (inactive)
GI50 [3]: 10.7 µM (inactive)
GI50 [4]: 2.02 µM (inactive)
GI50 [5]: 72.9 µM (inactive)
GI50 [9]: 26.5 µM (inactive)
GI50 [6]: 5.09 µM (inactive)
GI50 [7]: 7.66 µM (inactive)

O=C(Nc1c(-c2nc3ccccc3[nH]2)sc(=S)n1-c1ccccc1)c1ccccc1
GI50 [1]: > 100 µM (inactive)
GI50 [8]: > 100 µM (inactive)
GI50 [3]: 91.8 µM (inactive)
GI50 [4]: > 100 µM (inactive)
GI50 [9]: > 100 µM (inactive)
GI50 [6]: 58.9 µM (inactive)
GI50 [7]: 61.7 µM (inactive)

COc1ccc(C2NCCc3c2[nH]c2ccccc32)cc1 (configuration not stated)
GI50 [1]: > 100 µM (inactive)
GI50 [2]: 28.1 µM (inactive)
GI50 [8]: 58.7 µM (inactive)
GI50 [4]: > 100 µM (inactive)
GI50 [5]: > 100 µM (inactive)
GI50 [9]: 67 µM (inactive)
GI50 [6]: 95.3 µM (inactive)

O=C(O)CCSC(=S)Nc1cccc(F)c1
GI50 [1]: 50.7 µM (inactive)
GI50 [8]: > 100 µM (inactive)
GI50 [3]: 46.9 µM (inactive)
GI50 [4]: 28.2 µM (inactive)
GI50 [5]: 89.1 µM (inactive)
GI50 [6]: 62.2 µM (inactive)
GI50 [7]: 97.1 µM (inactive)

CCNC(=O)/C=C/CCC#Cc1ccc(-c2ccc(-c3cccs3)s2)s1
GI50 [1]: > 100 µM (inactive)
GI50 [2]: 2.71 µM (inactive)
GI50 [8]: 4.82 µM (inactive)
GI50 [3]: > 100 µM (inactive)
GI50 [4]: > 100 µM (inactive)
GI50 [5]: > 100 µM (inactive)
GI50 [6]: > 100 µM (inactive)
GI50 [7]: > 100 µM (inactive)

NC(=O)NC(=O)C1CCC(=O)N1S(=O)(=O)c1ccc(Cl)cc1 (configuration not stated)
GI50 [1]: > 100 µM (inactive)
GI50 [2]: > 100 µM (inactive)
GI50 [8]: > 100 µM (inactive)
GI50 [4]: > 100 µM (inactive)
GI50 [5]: > 100 µM (inactive)
GI50 [9]: > 100 µM (inactive)
GI50 [6]: > 100 µM (inactive)

c1ccc2c(NCCCCCCCCNc3c4ccccc4nc4ccccc34)c3ccccc3nc2c1
GI50 [1]: 0.143 µM (active)
GI50 [2]: 1.04 µM (active)
GI50 [8]: 1.76 µM (inactive)
GI50 [3]: 0.043 µM (active)
GI50 [4]: 1.08 µM (active)
GI50 [5]: 0.354 µM (active)
GI50 [9]: 0.178 µM (active)
GI50 [6]: 0.213 µM (active)
GI50 [7]: 1.01 µM (active)

CCN(CC)CCOC(=O)c1ccc(N)cc1.CCOC(=O)Nc1ccc(S(=O)(=O)OC)cc1.CCOC(=O)Nc1ccc(S(=O)(=O)OC)cc1.Nc1ccc(C(=O)O)c(O)c1
GI50 [1]: > 100 µM (inactive)
GI50 [8]: > 100 µM (inactive)
GI50 [4]: > 100 µM (inactive)
GI50 [5]: > 100 µM (inactive)
GI50 [9]: > 100 µM (inactive)
GI50 [6]: > 100 µM (inactive)
GI50 [7]: > 100 µM (inactive)

C=CCN1C(=O)CS/C1=N\NC(=O)c1c(C)nc2sccn12
GI50 [1]: > 100 µM (inactive)
GI50 [2]: > 100 µM (inactive)
GI50 [8]: > 100 µM (inactive)
GI50 [3]: > 100 µM (inactive)
GI50 [4]: > 100 µM (inactive)
GI50 [5]: > 100 µM (inactive)
GI50 [9]: > 100 µM (inactive)
GI50 [6]: > 100 µM (inactive)

CSc1nc2c(nc(N)n2C2OC(CO)C(O)C(O)C2O)c(=O)n1C (configuration not stated)
GI50 [1]: > 100 µM (inactive)
GI50 [2]: > 100 µM (inactive)
GI50 [8]: > 100 µM (inactive)
GI50 [4]: > 100 µM (inactive)
GI50 [5]: > 100 µM (inactive)
GI50 [6]: > 100 µM (inactive)
GI50 [7]: > 100 µM (inactive)

CC(=O)OCC1OC(N2C(=O)/C(=N\NC(N)=S)c3ccc([N+](=O)[O-])cc32)C(OC(C)=O)C1OC(C)=O (configuration not stated)
GI50 [1]: 29.6 µM (inactive)
GI50 [2]: 29.9 µM (inactive)
GI50 [8]: > 100 µM (inactive)
GI50 [3]: 17.4 µM (inactive)
GI50 [4]: 18.4 µM (inactive)
GI50 [5]: 31.5 µM (inactive)
GI50 [6]: 50 µM (inactive)
GI50 [7]: 33.3 µM (inactive)

CSc1n/c(=N\c2ccccc2)sn1-c1ccccc1
GI50 [3]: 8.83 µM (inactive)
GI50 [4]: 5.58 µM (inactive)
GI50 [5]: 13.6 µM (inactive)
GI50 [7]: 20.7 µM (inactive)

CCOCC(=O)N[C@H]1CCc2cc(OC)c(OC)c(OC)c2-c2ccc(OC)c(=O)cc21
GI50 [1]: 0.019 µM (active)
GI50 [2]: 0.0138 µM (active)
GI50 [3]: 0.0128 µM (active)
GI50 [4]: < 0.0202 µM (active)
GI50 [5]: 0.0118 µM (active)
GI50 [6]: 0.024 µM (active)
GI50 [7]: < 0.0147 µM (active)

CC1(CO)C(=O)OC12CCCCC2 (configuration not stated)
GI50 [1]: > 100 µM (inactive)
GI50 [2]: > 100 µM (inactive)
GI50 [3]: > 100 µM (inactive)
GI50 [4]: > 100 µM (inactive)
GI50 [9]: > 100 µM (inactive)
GI50 [6]: > 100 µM (inactive)
GI50 [7]: > 100 µM (inactive)
